Experimental data reported in patent publication US20160122320A1, “USEFUL COMBINATIONS OF MONOBACTAM ANTIBIOTICS WITH BETA-LACTAMASE INHIBITORS” (Basilea Pharmaceutica AG, priority 2005, published 2016).
Where a name gives a salt, the structure may show the parent alone.

Legend:
Assay in all cases: MIC, NCCLS broth microdilution
Assay type in all cases: cell-based
[1] = system: Stenotrophomonas malthophilia 1AC736; details: for MIC of antibiotic at fixed inhibitor concentration (4 mg/L): Stenotrophomonas malthophilia 1AC736, MIC of antibiotic compound 1 with the labelled bridged monobactam of formula II and clavulanate, 4 mg/L each
Description: Antimicrobial activity of the compounds and of their combinations was determined against a selection of organisms according to the standard procedures described by the National Committee for Clinical Laboratory Standards (National Committee for Clinical Laboratory. Standards (2000). Methods for Dilution Antimicrobial Susceptibility Tests for Bacteria That Grow Aerobically-Fifth Edition: Approved Standard M7-A5. NCCLS, Wayne, Pa., USA).
In all cases the final concentration of DMSO incubated with the bacteria is less than or equal to 1%. […] Plates were incubated overnight at an appropriate temperature (30° C. or 37° C.) and optical densities assessed by eye. The MIC value is defined as the lowest compound concentration completely inhibiting visible growth of the test organism. When combinations between compounds of formula I with compounds of formula II and are evaluated the compounds of formula I are tested in dilution series as described above while the compounds of formula II and III-XIII were present in all wells at a constant concentration of 4 μg/mL each.

Enterobacter cloacae P99 = details: for MIC of antibiotic at fixed inhibitor concentration (4 mg/L): MIC of antibiotic compound 1 with the labelled bridged monobactam of formula II and clavulanate, 4 mg/L each
[2] = system: Pseudomonas aeruginosa 1973E; details: for MIC of antibiotic at fixed inhibitor concentration (4 mg/L): MIC of antibiotic compound 1 with the labelled bridged monobactam of formula II and clavulanate, 4 mg/L each
Procedure, shortened: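 NCCLS M7-A5 microdilution; DMSO ≤1% final; overnight, 30° C. or 37° C.; visual read. MIC = lowest conc. with no visible growth. Combos: formula I titrated, partners fixed at 4 μg/mL each.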

[3] = system: Pseudomonas aeruginosa MK1184; details: for MIC of antibiotic at fixed inhibitor concentration (4 mg/L): MIC of antibiotic compound 1 with the labelled bridged monobactam of formula II and clavulanate, 4 mg/L each
[4] = system: Klebsiella pneumoniae CF104; details: for MIC of antibiotic at fixed inhibitor concentration (4 mg/L): MIC of antibiotic compound 1 with the labelled bridged monobactam of formula II and clavulanate, 4 mg/L each
Serratia marcescens S6 = details: for MIC of antibiotic at fixed inhibitor concentration (4 mg/L): MIC of antibiotic compound 1 with the labelled bridged monobactam of formula II and clavulanate, 4 mg/L each
Acinetobacter sp. J2 = details: for MIC of antibiotic at fixed inhibitor concentration (4 mg/L): Acinetobacter sp. J2, MIC of antibiotic compound 1 with the labelled bridged monobactam of formula II and clavulanate, 4 mg/L each
[5] = with clavulanate (clavulanic acid)

CC1C(NC(=O)C(=NOCc2cc(=O)c(O)cn2O)c2cccc(N)n2)C(=O)N1S(=O)(=O)O (stereo not shown) [Compound 20]
MIC of antibiotic ([1]; Stenotrophomonas maltophilia 1AC736, antibiotic alone, no inhibitor): 4 µg/mL
MIC of antibiotic at fixed inhibitor concentration of 4 mg/L ([1]; Stenotrophomonas maltophilia 1AC736, with 102 and clavulanate): 0.25 µg/mL
MIC of antibiotic at fixed inhibitor concentration of 4 mg/L ([1]; Stenotrophomonas maltophilia 1AC736, with 206 and clavulanate): 0.5 µg/mL
MIC of antibiotic at fixed inhibitor concentration of 4 mg/L ([1]; Stenotrophomonas maltophilia 1AC736, with 501): 0.25 µg/mL
MIC of antibiotic at fixed inhibitor concentration of 4 mg/L ([1]; Stenotrophomonas maltophilia 1AC736, with clavulanate (clavulanic acid)): 0.25 µg/mL
MIC of antibiotic (Enterobacter cloacae P99; antibiotic alone, no inhibitor): >32 µg/mL
MIC of antibiotic at fixed inhibitor concentration of 4 mg/L (Enterobacter cloacae P99; with 102 and clavulanate): 16 µg/mL
MIC of antibiotic at fixed inhibitor concentration of 4 mg/L (Enterobacter cloacae P99; with 206 and clavulanate): 16 µg/mL
MIC of antibiotic at fixed inhibitor concentration of 4 mg/L (Enterobacter cloacae P99; with 501): >32 µg/mL
MIC of antibiotic at fixed inhibitor concentration of 4 mg/L (Enterobacter cloacae P99; [5]): >32 µg/mL
MIC of antibiotic ([2]; antibiotic alone, no inhibitor): 16 µg/mL
MIC of antibiotic at fixed inhibitor concentration of 4 mg/L ([2]; with 102 and clavulanate): 32 µg/mL
MIC of antibiotic at fixed inhibitor concentration of 4 mg/L ([2]; with 206 and clavulanate): 16 µg/mL
MIC of antibiotic at fixed inhibitor concentration of 4 mg/L ([2]; with 501): 16 µg/mL
MIC of antibiotic at fixed inhibitor concentration of 4 mg/L [2, 5]: 16 µg/mL
MIC of antibiotic ([3]; antibiotic alone, no inhibitor): >32 µg/mL
MIC of antibiotic at fixed inhibitor concentration of 4 mg/L ([3]; with 102 and clavulanate): 8 µg/mL
MIC of antibiotic at fixed inhibitor concentration of 4 mg/L ([3]; with 206 and clavulanate): >32 µg/mL
MIC of antibiotic at fixed inhibitor concentration of 4 mg/L ([3]; with 501): >32 µg/mL
MIC of antibiotic at fixed inhibitor concentration of 4 mg/L [3, 5]: >32 µg/mL
MIC of antibiotic ([4]; antibiotic alone, no inhibitor): >32 µg/mL
MIC of antibiotic at fixed inhibitor concentration of 4 mg/L ([4]; with 102 and clavulanate): 2 µg/mL
MIC of antibiotic at fixed inhibitor concentration of 4 mg/L ([4]; with 206 and clavulanate): 4 µg/mL
MIC of antibiotic at fixed inhibitor concentration of 4 mg/L ([4]; with 501): 16 µg/mL
MIC of antibiotic at fixed inhibitor concentration of 4 mg/L [4, 5]: 32 µg/mL
MIC of antibiotic (Serratia marcescens S6; antibiotic alone, no inhibitor): 4 µg/mL
MIC of antibiotic at fixed inhibitor concentration of 4 mg/L (Serratia marcescens S6; with 102 and clavulanate): 0.5 µg/mL
MIC of antibiotic at fixed inhibitor concentration of 4 mg/L (Serratia marcescens S6; with 206 and clavulanate): 0.5 µg/mL
MIC of antibiotic at fixed inhibitor concentration of 4 mg/L (Serratia marcescens S6; with 501): 2 µg/mL
MIC of antibiotic at fixed inhibitor concentration of 4 mg/L (Serratia marcescens S6; [5]): 2 µg/mL
MIC of antibiotic (Acinetobacter sp. J2; Acinetobacter baumannii J2, antibiotic alone, no inhibitor): >32 µg/mL
MIC of antibiotic at fixed inhibitor concentration of 4 mg/L (Acinetobacter sp. J2; Acinetobacter baumannii J2, with 102 and clavulanate): >32 µg/mL
MIC of antibiotic at fixed inhibitor concentration of 4 mg/L (Acinetobacter sp. J2; Acinetobacter baumannii J2, with 206 and clavulanate): >32 µg/mL
MIC of antibiotic at fixed inhibitor concentration of 4 mg/L (Acinetobacter sp. J2; Acinetobacter baumannii J2, with 501): <0.06 µg/mL
MIC of antibiotic at fixed inhibitor concentration of 4 mg/L (Acinetobacter sp. J2; Acinetobacter baumannii J2, with clavulanate (clavulanic acid)): >32 µg/mL

O=C(N[C@H]1CCNC1)c1ccc[n+](CC(=O)N2CC[C@@H]3[C@H]2C(=O)N3S(=O)(=O)[O-])c1 [Compound 122, 2-(2-{3-[N-((3S)pyrrolidin-3-yl)carbamoyl]pyridinium}acetyl)(1S,5R)-7-oxo-2,6-diazabicyclo[3.2.0]heptane-6-sulfonate, inner salt]
MIC of antibiotic at fixed inhibitor concentration (4 mg/L) [1]: 0.125 µg/mL
MIC of antibiotic at fixed inhibitor concentration (4 mg/L) (Enterobacter cloacae P99): 16 µg/mL
MIC of antibiotic at fixed inhibitor concentration (4 mg/L) [2]: 4 µg/mL
MIC of antibiotic at fixed inhibitor concentration (4 mg/L) [3]: 16 µg/mL
MIC of antibiotic at fixed inhibitor concentration (4 mg/L) [4]: 0.125 µg/mL
MIC of antibiotic at fixed inhibitor concentration (4 mg/L) (Serratia marcescens S6): 0.25 µg/mL
MIC of antibiotic at fixed inhibitor concentration (4 mg/L) (Acinetobacter sp. J2): >32 µg/mL

C[N+]1(CC(=O)N2CC[C@@H]3[C@H]2C(=O)N3S(=O)(=O)[O-])CCN(C(=O)n2ccnc2)CC1 [Compound 407, (1S,5R)-2-{2-[4-(imidazolylcarbonyl)-1-methylpiperazinium]acetyl}-7-oxo-2,6-diazabicyclo[3.2.0]heptane-6-sulfonate, inner salt]
MIC of antibiotic at fixed inhibitor concentration (4 mg/L) [1]: 0.125 µg/mL
MIC of antibiotic at fixed inhibitor concentration (4 mg/L) (Enterobacter cloacae P99): 32 µg/mL
MIC of antibiotic at fixed inhibitor concentration (4 mg/L) [2]: 8 µg/mL
MIC of antibiotic at fixed inhibitor concentration (4 mg/L) [3]: >32 µg/mL
MIC of antibiotic at fixed inhibitor concentration (4 mg/L) [4]: 1 µg/mL
MIC of antibiotic at fixed inhibitor concentration (4 mg/L) (Serratia marcescens S6): 0.5 µg/mL
MIC of antibiotic at fixed inhibitor concentration (4 mg/L) (Acinetobacter sp. J2): >32 µg/mL

Nc1nc(CC(=O)N2CC[C@@H]3[C@H]2C(=O)N3S(=O)(=O)O)cs1 [Compound 401]
MIC of antibiotic at fixed inhibitor concentration (4 mg/L) [1]: 0.125 µg/mL
MIC of antibiotic at fixed inhibitor concentration (4 mg/L) (Enterobacter cloacae P99): 16 µg/mL
MIC of antibiotic at fixed inhibitor concentration (4 mg/L) [2]: 8 µg/mL
MIC of antibiotic at fixed inhibitor concentration (4 mg/L) [3]: >32 µg/mL
MIC of antibiotic at fixed inhibitor concentration (4 mg/L) [4]: 0.5 µg/mL
MIC of antibiotic at fixed inhibitor concentration (4 mg/L) (Serratia marcescens S6): 0.125 µg/mL
MIC of antibiotic at fixed inhibitor concentration (4 mg/L) (Acinetobacter sp. J2): 4 µg/mL

NC(=O)c1ccc(NC(=O)N2CC[C@@H]3[C@H]2C(=O)N3S(=O)(=O)[O-])cc1.[Na+] [Compound 311]
MIC of antibiotic at fixed inhibitor concentration (4 mg/L) [1]: 0.125 µg/mL
MIC of antibiotic at fixed inhibitor concentration (4 mg/L) (Enterobacter cloacae P99): 8 µg/mL
MIC of antibiotic at fixed inhibitor concentration (4 mg/L) [2]: 4 µg/mL
MIC of antibiotic at fixed inhibitor concentration (4 mg/L) [3]: >32 µg/mL
MIC of antibiotic at fixed inhibitor concentration (4 mg/L) [4]: 0.5 µg/mL
MIC of antibiotic at fixed inhibitor concentration (4 mg/L) (Serratia marcescens S6): 0.25 µg/mL
MIC of antibiotic at fixed inhibitor concentration (4 mg/L) (Acinetobacter sp. J2): 4 µg/mL

O=C(NCc1ccccc1)N1CC[C@@H]2[C@H]1C(=O)N2S(=O)(=O)[O-].[Na+] [Compound 302]
MIC of antibiotic at fixed inhibitor concentration (4 mg/L) [1]: 0.125 µg/mL
MIC of antibiotic at fixed inhibitor concentration (4 mg/L) (Enterobacter cloacae P99): 32 µg/mL
MIC of antibiotic at fixed inhibitor concentration (4 mg/L) [2]: 4 µg/mL
MIC of antibiotic at fixed inhibitor concentration (4 mg/L) [3]: >32 µg/mL
MIC of antibiotic at fixed inhibitor concentration (4 mg/L) [4]: 2 µg/mL
MIC of antibiotic at fixed inhibitor concentration (4 mg/L) (Serratia marcescens S6): 0.25 µg/mL
MIC of antibiotic at fixed inhibitor concentration (4 mg/L) (Acinetobacter sp. J2): >32 µg/mL
